Test results published in ChEMBL document CHEMBL5236585, “Design, synthesis and antifungal activities of novel triazole derivatives with selenium-containing hydrophobic side chains” (Bioorg Med Chem Lett, 2022).

How the values were obtained:
Candida albicans [1] = test: Antifungal activity against Candida albicans CPCC 400616 assessed as inhibition of fungal growth by microdilution method; format: functional
Candida albicans [2] = test: Antifungal activity against Candida albicans ATCC SC5314 assessed as inhibition of fungal growth by microdilution method; format: functional
Nakaseomyces glabratus = test: Antifungal activity against clinical isolate Candida glabrata assessed as inhibition of fungal growth by microdilution method; format: functional
Candida parapsilosis = test: Antifungal activity against Candida parapsilosis 22019 assessed as inhibition of fungal growth by microdilution method; format: functional; conditions: Lodderomyces parapsilosis
Pichia kudriavzevii = test: Antifungal activity against Candida krusei AS 2.1045 assessed as inhibition of fungal growth by microdilution method; format: functional
Candida tropicalis = test: Antifungal activity against Candida tropicalis CGMCC 2.3739 assessed as inhibition of fungal growth by microdilution method; format: functional
Cryptococcus neoformans = test: Antifungal activity against Cryptococcus neoformans CGMCC 2.3161 assessed as inhibition of fungal growth by microdilution method; format: functional
Aspergillus fumigatus = test: Antifungal activity against Aspergillus fumigatus CGMCC 3.7795 assessed as inhibition of fungal growth by microdilution method; format: functional
[3] = molecular target: T1, Lanosterol 14-alpha demethylase (Candida albicans (strain SC5314 / ATCC MYA-2876) (Yeast), UniProt P10613); test: Inhibition of CYP51 in Candida albicans SC5314 assessed as ergosterol level at 8 ug/ml by GC-MS analysis (reference value: 98.3 %); design: scale not given: the % may be the effect or the level left; conditions: at 8 µg/mL
T1 sequence (P10613 whole entry): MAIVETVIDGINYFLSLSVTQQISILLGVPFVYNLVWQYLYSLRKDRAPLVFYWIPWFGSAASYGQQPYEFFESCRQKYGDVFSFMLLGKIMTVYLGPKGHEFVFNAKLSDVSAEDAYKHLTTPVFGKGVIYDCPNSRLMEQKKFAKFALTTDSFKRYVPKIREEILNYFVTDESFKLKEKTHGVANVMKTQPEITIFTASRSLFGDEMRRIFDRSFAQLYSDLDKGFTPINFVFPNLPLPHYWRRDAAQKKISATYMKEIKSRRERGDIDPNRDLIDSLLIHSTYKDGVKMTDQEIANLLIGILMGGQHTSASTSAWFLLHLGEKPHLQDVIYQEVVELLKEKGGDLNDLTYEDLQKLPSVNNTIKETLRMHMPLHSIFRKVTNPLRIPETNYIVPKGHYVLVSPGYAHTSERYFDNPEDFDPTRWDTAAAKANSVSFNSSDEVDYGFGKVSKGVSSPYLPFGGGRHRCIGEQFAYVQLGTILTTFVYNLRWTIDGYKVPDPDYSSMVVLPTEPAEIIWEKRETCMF

[4] = molecular target: T1, Lanosterol 14-alpha demethylase; test: Inhibition of CYP51 in Candida albicans SC5314 assessed as ergosterol level at 16 ug/ml by GC-MS analysis (reference value: 98.3 %); design: scale not given: the % may be the effect or the level left; conditions: at 16 µg/mL
[5] = molecular target: T1, Lanosterol 14-alpha demethylase; test: Inhibition of CYP51 in Candida albicans SC5314 assessed as ergosterol level at 32 ug/ml by GC-MS analysis (reference value: 98.3 %); design: scale not given: the % may be the effect or the level left; conditions: at 32 µg/mL
[6] = molecular target: T1, Lanosterol 14-alpha demethylase; test: Inhibition of CYP51 in Candida albicans SC5314 assessed as ergosterol level at 64 ug/ml by GC-MS analysis (reference value: 98.3 %); design: scale not given: the % may be the effect or the level left; conditions: at 64 µg/mL
[7] = molecular target: T1, Lanosterol 14-alpha demethylase; test: Inhibition of CYP51 in Candida albicans SC5314 assessed as obtusifoliol level at 8 ug/ml by GC-MS analysis (reference value: 0 %); design: scale not given: the % may be the effect or the level left; conditions: at 8 µg/mL
[8] = molecular target: T1, Lanosterol 14-alpha demethylase; test: Inhibition of CYP51 in Candida albicans SC5314 assessed as obtusifoliol level at 16 ug/ml by GC-MS analysis (reference value: 0 %); design: scale not given: the % may be the effect or the level left; conditions: at 16 µg/mL
[9] = molecular target: T1, Lanosterol 14-alpha demethylase; test: Inhibition of CYP51 in Candida albicans SC5314 assessed as obtusifoliol level at 32 ug/ml by GC-MS analysis (reference value: 0 %); design: scale not given: the % may be the effect or the level left; conditions: at 32 µg/mL
[10] = molecular target: T1, Lanosterol 14-alpha demethylase; test: Inhibition of CYP51 in Candida albicans SC5314 assessed as obtusifoliol level at 64 ug/ml by GC-MS analysis (reference value: 0 %); design: scale not given: the % may be the effect or the level left; conditions: at 64 µg/mL
[11] = molecular target: T1, Lanosterol 14-alpha demethylase; test: Inhibition of CYP51 in Candida albicans SC5314 assessed as lanosterol level at 8 ug/ml by GC-MS analysis (reference value: 1.7 %); design: scale not given: the % may be the effect or the level left; conditions: at 8 µg/mL
[12] = molecular target: T1, Lanosterol 14-alpha demethylase; test: Inhibition of CYP51 in Candida albicans SC5314 assessed as lanosterol level at 16 ug/ml by GC-MS analysis (reference value: 1.7 %); design: scale not given: the % may be the effect or the level left; conditions: at 16 µg/mL
[13] = molecular target: T1, Lanosterol 14-alpha demethylase; test: Inhibition of CYP51 in Candida albicans SC5314 assessed as lanosterol level at 32 ug/ml by GC-MS analysis (reference value: 1.7 %); design: scale not given: the % may be the effect or the level left; conditions: at 32 µg/mL
[14] = molecular target: T1, Lanosterol 14-alpha demethylase; test: Inhibition of CYP51 in Candida albicans SC5314 assessed as lanosterol level at 64 ug/ml by GC-MS analysis (reference value: 1.7 %); design: scale not given: the % may be the effect or the level left; conditions: at 64 µg/mL
[15] = molecular target: T1, Lanosterol 14-alpha demethylase; test: Inhibition of CYP51 in Candida albicans SC5314 assessed as eburicol level at 8 ug/ml by GC-MS analysis (reference value: 0 %); design: scale not given: the % may be the effect or the level left; conditions: at 8 µg/mL
[16] = molecular target: T1, Lanosterol 14-alpha demethylase; test: Inhibition of CYP51 in Candida albicans SC5314 assessed as eburicol level at 16 ug/ml by GC-MS analysis (reference value: 0 %); design: scale not given: the % may be the effect or the level left; conditions: at 16 µg/mL
[17] = molecular target: T1, Lanosterol 14-alpha demethylase; test: Inhibition of CYP51 in Candida albicans SC5314 assessed as eburicol level at 32 ug/ml by GC-MS analysis (reference value: 0 %); design: scale not given: the % may be the effect or the level left; conditions: at 32 µg/mL
[18] = molecular target: T1, Lanosterol 14-alpha demethylase; test: Inhibition of CYP51 in Candida albicans SC5314 assessed as eburicol level at 64 ug/ml by GC-MS analysis (reference value: 0 %); design: scale not given: the % may be the effect or the level left; conditions: at 64 µg/mL
HL-60 = test: Cytotoxicity against human HL-60 cells assessed as inhibition of cell growth by MTT assay; format: functional, cell-based
MDA-MB-231 = test: Cytotoxicity against human MDA-MB-231 cells assessed as inhibition of cell growth by MTT assay; format: functional, cell-based
PC-3 = test: Cytotoxicity against human PC-3 cells assessed as inhibition of cell growth by MTT assay; format: functional, cell-based

## OC(C[Se]Cc1ccccc1Br)(Cn1cncn1)c1ccc(F)cc1F (configuration not stated)
Candida albicans [1]
  MIC: 0.25 mg/L
Candida albicans [2]
  MIC: 0.01 mg/L
Nakaseomyces glabratus
  MIC: 4 mg/L
Candida parapsilosis
  MIC: 0.125 mg/L
Pichia kudriavzevii
  MIC: 0.25 mg/L
Candida tropicalis
  MIC: 0.25 mg/L
Cryptococcus neoformans
  MIC: 1 mg/L
Aspergillus fumigatus
  MIC: 2 mg/L
[3]
  Activity: 3.5%
[4]
  Activity: 2.1%
[5]
  Activity: 0.48%
[6]
  Activity: 0.18%
[7]
  Activity: 11.1%
[8]
  Activity: 11.3%
[9]
  Activity: 9.28%
[10]
  Activity: 11.9%
[11]
  Activity: 19.2%
[12]
  Activity: 20.3%
[13]
  Activity: 21.1%
[14]
  Activity: 19.6%
[15]
  Activity: 66.2%
[16]
  Activity: 66.7%
[17]
  Activity: 69.2%
[18]
  Activity: 69.3%
HL-60
  IC50: 18.4 µM
MDA-MB-231
  IC50: 17.9 µM
PC-3
  IC50: 15.6 µM
